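Assay format: 96-well plates, 48-hour exposure. Definition used: TGI = concentration required for complete inhibition of growth.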
Experiments:
Experiment in all cases: growth of human tumour cells (NCI), 48 h
[1] = tested on: UACC-257 melanoma
[2] = tested on: U251 CNS
[3] = tested on: SK-MEL-5 melanoma
[4] = tested on: PC-3 prostate
[5] = tested on: NCI-H226 lung
[6] = tested on: HOP-62 NSCLC
[7] = tested on: 786-0 renal
[8] = tested on: SF-539 CNS
[9] = tested on: SNB-19 CNS
[10] = tested on: SN12C renal
[11] = tested on: HCC-2998 colon
[12] = tested on: NCI-H460 lung
[13] = tested on: CCRF-CEM leukemia
[14] = tested on: ACHN renal
[15] = tested on: OVCAR-3 ovarian
[16] = tested on: M14 melanoma
[17] = tested on: KM12 colon
[18] = tested on: NCI/ADR-RES ovarian
[19] = tested on: IGROV1 ovarian
[20] = tested on: BT-549 breast
[21] = tested on: SF-268 CNS
[22] = tested on: T-47D breast
[23] = tested on: MDA-N
[24] = tested on: COLO 205 colon
[25] = tested on: MALME-3M melanoma
[26] = tested on: HL-60(TB) leukemia
[27] = tested on: OVCAR-4 ovarian
[28] = tested on: UACC-62 melanoma
[29] = tested on: MDA-MB-231 breast
[30] = tested on: OVCAR-5 ovarian
[31] = tested on: LOX IMVI melanoma
[32] = tested on: MCF7 breast
[33] = tested on: HOP-92 NSCLC
[34] = tested on: MDA-MB-435
[35] = tested on: SW-620 colon
[36] = tested on: RPMI-8226 leukemia
[37] = tested on: TK-10 renal
[38] = tested on: DU-145 prostate
[39] = tested on: RXF 393 renal
[40] = tested on: HCT-15 colon
[41] = tested on: HT29 colon
[42] = tested on: SK-MEL-28 melanoma
[43] = tested on: K-562 leukemia
[44] = tested on: SK-MEL-2 melanoma
[45] = tested on: MOLT-4 leukemia
[46] = tested on: HCT-116 colon
[47] = tested on: A549 NSCLC
[48] = tested on: UO-31 renal
[49] = tested on: SK-OV-3 ovarian
[50] = tested on: NCI-H23 lung
[51] = tested on: SR leukemia
[52] = tested on: A498 renal
[53] = tested on: EKVX NSCLC
[54] = tested on: HS 578T breast
[55] = tested on: CAKI-1 renal
[56] = tested on: SF-295 CNS
[57] = tested on: NCI-H522 lung
[58] = tested on: OVCAR-8 ovarian
[59] = tested on: SNB-75 CNS

N#Cc1c(N)c(C#N)c2c(c1-c1ccc(Cl)cc1)COc1ccccc1-2
TGI [1]: > 100 µM
TGI [2]: 32.7 µM
TGI [3]: 71.6 µM
TGI [4]: 42.6 µM
TGI [5]: 98.9 µM
TGI [6]: 33.5 µM
TGI [7]: 15.1 µM
TGI [8]: 49.1 µM
TGI [9]: 30.6 µM
TGI [10]: 31 µM
TGI [11]: 54.9 µM
TGI [12]: > 100 µM
TGI [13]: 33 µM
TGI [14]: 38.1 µM
TGI [15]: 30.6 µM
TGI [16]: > 100 µM
TGI [17]: > 100 µM
TGI [18]: 68.5 µM
TGI [19]: 66.5 µM
TGI [20]: 65.2 µM
TGI [21]: > 100 µM
TGI [22]: 58.2 µM
TGI [23]: 66.4 µM
TGI [24]: > 100 µM
TGI [25]: 58.1 µM
TGI [26]: 68.8 µM
TGI [27]: 30 µM
TGI [28]: > 100 µM
TGI [29]: 92.3 µM
TGI [30]: > 100 µM
TGI [31]: > 100 µM
TGI [32]: > 100 µM
TGI [33]: 45.5 µM
TGI [34]: 99.4 µM
TGI [35]: > 100 µM
TGI [36]: 17.1 µM
TGI [37]: 36.1 µM
TGI [38]: 68.6 µM
TGI [39]: 30.4 µM
TGI [40]: > 100 µM
TGI [41]: 40.3 µM
TGI [42]: 37.4 µM
TGI [43]: 35.3 µM
TGI [44]: 60.1 µM
TGI [45]: 25 µM
TGI [46]: 40.7 µM
TGI [47]: 33.2 µM
TGI [48]: 13 µM
TGI [49]: 36.9 µM
TGI [50]: 39.9 µM
TGI [51]: 26.3 µM
TGI [52]: 37.7 µM
TGI [53]: 28.5 µM

O=C(Nn1cnn2c(=O)c3ccccc3nc2c1=O)c1ccccc1
TGI [1]: > 100 µM
TGI [2]: > 100 µM
TGI [3]: > 100 µM
TGI [4]: > 100 µM
TGI [5]: > 100 µM
TGI [6]: > 100 µM
TGI [7]: > 100 µM
TGI [8]: > 100 µM
TGI [9]: > 100 µM
TGI [10]: > 100 µM
TGI [11]: > 100 µM
TGI [12]: > 100 µM
TGI [13]: > 100 µM
TGI [54]: > 100 µM
TGI [14]: > 100 µM
TGI [15]: > 100 µM
TGI [16]: > 100 µM
TGI [17]: > 100 µM
TGI [19]: > 100 µM
TGI [20]: > 100 µM
TGI [21]: > 100 µM
TGI [22]: > 100 µM
TGI [23]: > 100 µM
TGI [24]: > 100 µM
TGI [55]: > 100 µM
TGI [25]: > 100 µM
TGI [26]: > 100 µM
TGI [27]: > 100 µM
TGI [28]: > 100 µM
TGI [56]: > 100 µM
TGI [29]: > 100 µM
TGI [57]: > 100 µM
TGI [30]: > 100 µM
TGI [31]: > 100 µM
TGI [32]: > 100 µM
TGI [33]: > 100 µM
TGI [34]: > 100 µM
TGI [35]: > 100 µM
TGI [58]: > 100 µM
TGI [59]: > 100 µM
TGI [36]: > 100 µM
TGI [37]: > 100 µM
TGI [38]: > 100 µM
TGI [40]: > 100 µM
TGI [41]: > 100 µM
TGI [42]: > 100 µM
TGI [43]: > 100 µM
TGI [44]: > 100 µM
TGI [46]: > 100 µM
TGI [47]: > 100 µM
TGI [48]: > 100 µM
TGI [49]: > 100 µM
TGI [50]: > 100 µM
TGI [51]: > 100 µM
TGI [52]: > 100 µM
TGI [53]: > 100 µM

CCC1=NC(C(F)(F)F)(C(F)(F)F)N=C(/N=C(/N)N(C)C(C(C)C)P(=O)(OC(C)C)OC(C)C)O1 (configuration not stated)
TGI [1]: > 100 µM
TGI [2]: > 100 µM
TGI [3]: > 100 µM
TGI [4]: > 100 µM
TGI [5]: > 100 µM
TGI [6]: > 100 µM
TGI [7]: > 100 µM
TGI [8]: > 100 µM
TGI [9]: > 100 µM
TGI [10]: > 100 µM
TGI [11]: > 100 µM
TGI [12]: > 100 µM
TGI [13]: > 100 µM
TGI [54]: > 100 µM
TGI [14]: > 100 µM
TGI [15]: > 100 µM
TGI [16]: > 100 µM
TGI [17]: > 100 µM
TGI [18]: > 100 µM
TGI [19]: > 100 µM
TGI [20]: > 100 µM
TGI [21]: > 100 µM
TGI [22]: > 100 µM
TGI [23]: > 100 µM
TGI [24]: > 100 µM
TGI [55]: > 100 µM
TGI [25]: > 100 µM
TGI [26]: > 100 µM
TGI [27]: > 100 µM
TGI [28]: > 100 µM
TGI [56]: > 100 µM
TGI [29]: > 100 µM
TGI [57]: > 100 µM
TGI [30]: > 100 µM
TGI [31]: > 100 µM
TGI [32]: > 100 µM
TGI [34]: > 100 µM
TGI [35]: > 100 µM
TGI [58]: > 100 µM
TGI [59]: > 100 µM
TGI [36]: > 100 µM
TGI [37]: > 100 µM
TGI [38]: > 100 µM
TGI [39]: > 100 µM
TGI [40]: > 100 µM
TGI [41]: > 100 µM
TGI [42]: > 100 µM
TGI [43]: > 100 µM
TGI [44]: > 100 µM
TGI [45]: > 100 µM
TGI [46]: > 100 µM
TGI [47]: > 100 µM
TGI [48]: > 100 µM
TGI [49]: > 100 µM
TGI [50]: > 100 µM
TGI [51]: > 100 µM
TGI [52]: > 100 µM
TGI [53]: > 100 µM

COc1ccc(N2C(=O)/C(=C\c3cccc(Oc4ccccc4)c3)SC2c2ccccc2)cc1 (configuration not stated)
TGI [1]: > 100 µM
TGI [2]: > 100 µM
TGI [3]: > 100 µM
TGI [5]: > 100 µM
TGI [6]: > 100 µM
TGI [7]: > 100 µM
TGI [8]: 55.9 µM
TGI [9]: > 100 µM
TGI [10]: > 100 µM
TGI [11]: > 100 µM
TGI [12]: > 100 µM
TGI [13]: 44.8 µM
TGI [54]: > 100 µM
TGI [14]: > 100 µM
TGI [15]: > 100 µM
TGI [16]: > 100 µM
TGI [17]: > 100 µM
TGI [18]: > 100 µM
TGI [20]: > 100 µM
TGI [21]: > 100 µM
TGI [22]: > 100 µM
TGI [23]: > 100 µM
TGI [24]: > 100 µM
TGI [55]: > 100 µM
TGI [25]: > 100 µM
TGI [26]: > 100 µM
TGI [27]: > 100 µM
TGI [28]: > 100 µM
TGI [56]: > 100 µM
TGI [29]: > 100 µM
TGI [57]: 58.9 µM
TGI [30]: > 100 µM
TGI [31]: > 100 µM
TGI [32]: > 100 µM
TGI [33]: > 100 µM
TGI [34]: > 100 µM
TGI [35]: > 100 µM
TGI [58]: > 100 µM
TGI [36]: 60.9 µM
TGI [37]: > 100 µM
TGI [38]: > 100 µM
TGI [39]: > 100 µM
TGI [40]: > 100 µM
TGI [42]: > 100 µM
TGI [43]: > 100 µM
TGI [44]: > 100 µM
TGI [45]: 74.1 µM
TGI [46]: > 100 µM
TGI [47]: > 100 µM
TGI [48]: > 100 µM
TGI [49]: > 100 µM
TGI [50]: > 100 µM
TGI [51]: 59.2 µM
TGI [52]: > 100 µM
TGI [53]: > 100 µM
